What all share (assay type): cell-based
Experiment [1] concerns OVCAR-3 (Adenocarcinoma, ovary, human). As to the kind of experiment: Anti-cancer activity assay, alamarBlue cell growth, OVCAR-3.
Excerpt: Four human tumor cell lines, OVCAR-3 (Adenocarcinoma, ovary, human), A549 (Carcinoma, lung, human), HT-29 (Adenocarcinoma, colon, moderately well-differentiated grade II, human) and MCF-7 (Breast adenocarcinoma, pleural effusion, human) were chosen in the experiments., which were obtained from American Type Culture Collection (ATCC) under codes of ATCC HTB-161, ATCC CCL-185, ATC HTB-38 and ATCC HTB-22, respectively. The culture medium used for OVCAR-3 was RPMI 1640 medium with 20% fetal bovine serum, which was supplemented with 0.01 mg bovine insulin per ml and 1% Antibiotice-Antimycotic. The culture medium used for A549 was F-12K nutrient mixture (Kaighn's Modification), 90%; and fetal bovine serum 10%. The culture medium used for HT-29 was McCoy's 5A medium, 90%; and fetal bovine serum, 10%. The culture medium used for MCF-7 was Minimum Essential Medium, 90%; and fetal bovine serum, 10%.
CK was dissolved in a mixed solvent of ethanol and Cremophor® RH40 (ethanol:Cremophor® RH40=1:1), and then diluted with sterile distilled water to obtain test solutions having CK concentrations of 10000, 1000, 100, 10, 1 μg/ml in 5% ethanol and 5% Cremophor® RH40.
(§1) Aliquots of 100 μl of cell suspension (about 1.0˜3.0×10^3/well) were placed in 96-well microtiter plates in an atmosphere of 5% CO2 at 37° C. After 24 hours, 100 μl of growth medium and 2 μl of test solution or vehicle (5% ethanol and 5% Cremophor® RH40) were added per respectively per well in duplicate for an additional 72-hour incubation. Thus, the final concentration of vehicle was 0.05%. The test compound, CK, was evaluated at concentrations of 100, 10, 1, 0.1, 0.01 μg/ml. At the end of the incubation, 20 μl of alamarBlue 90% reagent was added to each well for another 6-hour incubation before detection of cell viability by fluorescent intensity. Fluorescent intensity was measured using a SPECTRAfluor Plus plate reader with excitation at 530 nm and emission at 590 nm.
The tumor cell lines used were the same as in Experiment 1.
CK succinate and CK glutarate derivatives were directly dissolved in the phosphate buffered saline (PBS) having a pH of 7.4, and then diluted with sterile distilled water to obtain test solutions having concentrations of the CK derivative of 2000, 200, 20, 2, 0.2 μg/ml in 40% PBS
as §1, with “(about 5.0×10^3/well)” for “(about 1.0˜3.0×10^3/well)”, “hours, 90” for “hours, 100”, “and 10” for “and 2”, “vehicle (40% PBS, pH 7.4)” for “vehicle (5% ethanol and 5% Cremophor® RH40)”, “compound, CK derivative,” for “compound, CK,”
The measured results were calculated according to the following formulas: • PG (Percent Growth): PG(%)=100%×(Mean Ftest-Mean Ftime0)/(Mean Fctrl-Mean Ftime0) • If (Mean Ftest-Mean Ftime0)<0, then PG(%)=100%×(Mean Ftest-Mean Ftime0)/(Mean Ftime0-Mean Fblank) wherein • Mean Ftime0=The average of two measured fluorescent intensities of reduced alamarBlue at the time just before exposure of cells to the test compound; • Mean Ftest=The average of two measured fluorescent intensities of alamarBlue after 72-hour exposure of cells to the test compound; • Mean Fctrl=The average of two measured fluorescent intensities of alamarBlue after 72-hour incubation without the test compound; • Mean Fblank=The average of two measured fluorescent intensities of alamarBlue in medium without cells after 72-hour incubation. […]

Experiment [2] deals with MCF-7 (Breast adenocarcinoma, pleural effusion, human). As to the kind of experiment: Anti-cancer activity assay, alamarBlue cell growth, MCF-7. Conditions: 72-hour incubation, CK in 5% ethanol/5% Cremophor RH40, derivatives in PBS pH 7.4, read-out: IC50 (μM) of CK, CK succinate and CK glutarate derivatives, MCF-7. From the text:
(§2) Four human tumor cell lines, OVCAR-3 (Adenocarcinoma, ovary, human), A549 (Carcinoma, lung, human), HT-29 (Adenocarcinoma, colon, moderately well-differentiated grade II, human) and MCF-7 (Breast adenocarcinoma, pleural effusion, human) were chosen in the experiments., which were obtained from American Type Culture Collection (ATCC) under codes of ATCC HTB-161, ATCC CCL-185, ATC HTB-38 and ATCC HTB-22, respectively. The culture medium used for OVCAR-3 was RPMI 1640 medium with 20% fetal bovine serum, which was supplemented with 0.01 mg bovine insulin per ml and 1% Antibiotice-Antimycotic. […]
(§3) Aliquots of 100 μl of cell suspension (about 1.0˜3.0×10^3/well) were placed in 96-well microtiter plates in an atmosphere of 5% CO2 at 37° C. […] The test compound, CK, was evaluated at concentrations of 100, 10, 1, 0.1, 0.01 μg/ml. […] Fluorescent intensity was measured using a SPECTRAfluor Plus plate reader with excitation at 530 nm and emission at 590 nm. […]
(§4) Aliquots of 100 μl of cell suspension (about 5.0×10^3/well) were placed in 96-well microtiter plates in an atmosphere of 5% CO2 at 37° C. […] The test compound, CK derivative, was evaluated at concentrations of 100, 10, 1, 0.1, 0.01 μg/ml. […] Fluorescent intensity was measured using a SPECTRAfluor Plus plate reader with excitation at 530 nm and emission at 590 nm. […]
(In general: Resazurin is reduced to fluorescent resorufin, in cell work by metabolically active cells.)

Experiment [3] has as its system HT-29 (Adenocarcinoma, colon, moderately well-differentiated grade II, human). Kind of experiment: Anti-cancer activity assay, alamarBlue cell growth, HT-29. Particulars: 72-hour incubation, CK in 5% ethanol/5% Cremophor RH40, derivatives in PBS pH 7.4, read-out: IC50 (μM) of CK, CK succinate and CK glutarate derivatives, HT-29.
Excerpt: as §2, §3, §4

Experiment [4] deals with A549 (Carcinoma, lung, human). As to the kind of experiment: Anti-cancer activity assay, alamarBlue cell growth, A549. Conditions: 72-hour incubation, CK in 5% ethanol/5% Cremophor RH40, derivatives in PBS pH 7.4, read-out: IC50 (μM) of CK, CK succinate and CK glutarate derivatives, A549.
Excerpt: as §2, §3, §4

[5] abbreviates: OVCAR-3 tumor cell, Table 4, read-out: IC50 (μM) of ginsenosides and it's succinate derivatives on OVCAR-3 tumor cell.
[6] abbreviates: OVCAR-3, 72-hour incubation, alamarBlue, CK in 5% ethanol/5% Cremophor RH40, derivatives in PBS pH 7.4, read-out: IC50 (μM) of CK, CK succinate and CK glutarate derivatives, OVCAR-3.

Molecules are shown by their SMILES. Like-named read-outs stand apart in the source and are kept apart here. Bounds are passed on as bounds.

As usually defined, the IC50 is the concentration that gives 50% inhibition. For the molecule `CC(C)=CCCC(C)(O)[C@H]1CC[C@]2(C)[C@@H]1[C@H](O)C[C@@H]1[C@@]3(C)CC[C@H](O)C(C)(C)[C@@H]3CC[C@]12C` (stereo in doubt) [GS40, protopanaxadiol, reference compound], the half-inhibitory concentration (IC50) in experiment [1] (setting [5]) turned out to be 28.2 µM. Take `CC(C)=CCC[C@](C)(O[C@@H]1O[C@H](CO)[C@@H](O)[C@H](O)[C@H]1O)[C@H]1CC[C@]2(C)[C@@H]1[C@H](O)C[C@@H]1[C@@]3(C)CC[C@H](O)C(C)(C)[C@@H]3[C@@H](O)C[C@]12C` [GS30, F1, reference compound]: in experiment [1] (setting [5]), the IC50 was determined as 50.1 µM. The same measure, in the same setting: the same measure for `CC(C)=CCCC(C)(OC1OC(CO)C(O)C(OC(=O)CCC(=O)O)C1O)C1CCC2(C)C1C(O)CC1C3(C)CCC(O)C(C)(C)C3C(O)CC12C` (stereo not shown) [GS32, F1-3′-monosuccinate]: 14.9 µM.

For the molecule `CC(C)=CCCC(C)(O)C1CCC2(C)C1C(OC(=O)CCC(=O)O)CC1C3(C)CCC(O)C(C)(C)C3CCC12C` (stereo not shown) [GS41, PPD-12-monosuccinate], the IC50 in experiment [1] (setting [5]) was 42.8 µM. Take `CC(C)=CCCC(C)(O)C1CCC2(C)C1C(OC(=O)CCC(=O)O)CC1C3(C)CCC(OC(=O)CCC(=O)O)C(C)(C)C3CCC12C` (stereo not shown) [GS42, PPD-3,12-disuccinate]: the half-maximal inhibitory concentration (IC50) in experiment [1] (setting [5]) was determined as 30.3 µM. As to `CC(C)=CCC[C@](C)(O)[C@H]1CC[C@]2(C)[C@@H]1[C@H](O)C[C@@H]1[C@@]3(C)CC[C@H](O)C(C)(C)[C@@H]3[C@@H](O)C[C@]12C` [GS50, protopanaxatriol, reference compound], the IC50 in experiment [1] (setting [5]) came out at 31.5 µM. In the case of `CC(C)=CCCC(C)(O)C1CCC2(C)C1C(OC(=O)CCC(=O)O)CC1C3(C)CCC(O)C(C)(C)C3C(O)CC12C` (stereo not shown) [GS51, PPT-12-monosuccinate], in experiment [1] (setting [5]), the IC50 is 31.2 µM. For `CC(C)=CCCC(C)(O)C1CCC2(C)C1C(OC(=O)CCC(=O)O)CC1C3(C)CCC(OC(=O)CCC(=O)O)C(C)(C)C3C(O)CC12C` (stereo not shown) [GS52, PPT-3,12-disuccinate], the IC50 in experiment [1] (setting [5]) was 26.6 µM.

As to `CC(C)=CCCC(C)(O)C1CCC2(C)C1C(OC(=O)CCC(=O)O)CC1C3(C)CCC(OC(=O)CCC(=O)O)C(C)(C)C3C(OC(=O)CCC(=O)O)CC12C` (stereo not shown) [GS53, PPT-3,6,12-trisuccinate], the IC50 in experiment [1] (setting [5]) is 47.6 µM.

Consider `CC(C)=CCCC(C)(OC1OC(COC(=O)CCC(=O)O)C(O)C(O)C1O)C1CCC2(C)C1C(O)CC1C3(C)CCC(O)C(C)(C)C3CCC12C` (stereo not shown) [GS-6, CK-6′-monosuccinate], for which the IC50 in experiment [1] (setting [6]) turned out to be 22.1 µM.

For `CC(C)=CCC[C@](C)(O[C@@H]1O[C@H](CO)[C@@H](O)[C@H](OC(=O)CCC(=O)O)[C@H]1O)[C@H]1CC[C@]2(C)[C@@H]1[C@H](O)C[C@@H]1[C@@]3(C)CC[C@H](O)C(C)(C)[C@@H]3CC[C@]12C` [GS-8, CK-3′-monosuccinate], the IC50 in experiment [1] (setting [6]) turned out to be 19.3 µM; in experiment [2], 53.9 µM; in experiment [3], 71.9 µM; in experiment [4], 31.8 µM. For `CC(C)=CCCC(C)(OC1OC(COC(=O)CCC(=O)O)C(O)C(OC(=O)CCC(=O)O)C1O)C1CCC2(C)C1C(O)CC1C3(C)CCC(O)C(C)(C)C3CCC12C` (stereo not shown) [GS-9, CK-3′,6,-disuccinate], the IC50 in experiment [1] (setting [6]) amounted to 89.9 µM. For `CC(C)=CCCC(C)(OC1OC(COC(=O)CCC(=O)O)C(OC(=O)CCC(=O)O)C(OC(=O)CCC(=O)O)C1O)C1CCC2(C)C1C(O)CC1C3(C)CCC(O)C(C)(C)C3CCC12C` (stereo not shown) [GS-11, CK-3′,4′,6′-trisuccinate], the IC50 in experiment [1] (setting [6]) was over 100 µM. `CC(C)=CCC[C@](C)(O[C@@H]1O[C@H](CO)[C@@H](O)[C@H](O)[C@H]1O)[C@H]1CC[C@]2(C)[C@@H]1[C@H](O)C[C@@H]1[C@@]3(C)CC[C@H](O)C(C)(C)[C@@H]3CC[C@]12C` [GS-12, 20-O-β-D-glucopyranosyl-protopanaxadiol, reference compound]: the IC50 in experiment [1] (setting [6]) is 2.7 µM; in experiment [2], 11.2 µM; in experiment [3], 9.3 µM; in experiment [4], 17.7 µM. Regarding `CC(C)=CCCC(C)(OC1OC(CO)C(O)C(OC(=O)CCCC(=O)O)C1O)C1CCC2(C)C1C(O)CC1C3(C)CCC(O)C(C)(C)C3CCC12C` (stereo not shown) [GS-13, CK-3′-monoglutarate], the IC50 in experiment [1] (setting [6]) amounted to 69.1 µM. Regarding `CC(C)=CCCC(C)(OC1OC(COC(=O)CCCC(=O)O)C(O)C(OC(=O)CCCC(=O)O)C1O)C1CCC2(C)C1C(O)CC1C3(C)CCC(O)C(C)(C)C3CCC12C` (stereo not shown) [GS-14, CK-3′,6′-diglutarate], the concentration for half-maximal inhibition (IC50) in experiment [1] (setting [6]) is 79.8 µM.

The values are drawn from US20060234956A1, “Dicarboxylic acid ester derivatives of ginsenoside, pharmaceutical preparations containing the same, and preparation thereof” (Amersen Bioscience International, Inc., priority 2005, published 2006).
